Key:
human LTA4 hydrolase = target: T1, human LTA4 hydrolase (Homo sapiens, UniProt P09960); experiment: LTA4H Enzyme assay (peptidase, Arg-AMC cleavage); type: biochemical; details: LTA4H enzyme 1 nM, Arg-AMC substrate 50 μM, room temperature 1 h, fluorescence 380/460 nm
T1 sequence (P09960 1-611): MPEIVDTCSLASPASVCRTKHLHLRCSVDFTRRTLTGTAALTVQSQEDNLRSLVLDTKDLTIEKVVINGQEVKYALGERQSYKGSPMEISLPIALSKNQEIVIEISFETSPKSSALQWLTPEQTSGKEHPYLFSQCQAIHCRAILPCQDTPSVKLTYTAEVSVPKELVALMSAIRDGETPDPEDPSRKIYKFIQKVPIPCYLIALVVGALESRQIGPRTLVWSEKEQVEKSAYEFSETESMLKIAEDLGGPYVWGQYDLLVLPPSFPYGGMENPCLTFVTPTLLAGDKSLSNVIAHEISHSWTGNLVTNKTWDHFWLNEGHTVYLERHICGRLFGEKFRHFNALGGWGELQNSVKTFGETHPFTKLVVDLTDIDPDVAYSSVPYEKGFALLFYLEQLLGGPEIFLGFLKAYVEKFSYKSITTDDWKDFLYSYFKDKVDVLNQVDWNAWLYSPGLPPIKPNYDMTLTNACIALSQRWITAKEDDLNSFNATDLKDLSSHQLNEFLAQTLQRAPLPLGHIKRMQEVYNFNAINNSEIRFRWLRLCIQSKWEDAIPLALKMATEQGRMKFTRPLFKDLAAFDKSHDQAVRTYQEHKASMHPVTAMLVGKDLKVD
In short: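 Human LTA4H (1 nM final) incubated with compound and Arg-AMC (50 μM final) in 50 mM Tris-HCl pH 7.5, 100 mM KCl, 0.5% BSA, 1 h at room temperature. Product read as AMC fluorescence (ex 380/em 460 nm); IC50 reported.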

[1] = test system: LTB4 synthesis in human whole blood; experiment: human whole blood (HWB) assay, inhibition of LTB4 production; type: cell-based; details: heparinized human whole blood, calcimycin 20 μM stimulation, plasma LTB4
In short: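 Plasma LTB4, quantified by HTRF immunoassay, is the read-out after calcimycin challenge (20 μM final, 30 min, 37 °C) of heparinized whole blood that had been pretreated with compound for 15 min at 37 °C; values given as IC50.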

IC50 (human LTA4 hydrolase) [nM]	IC50 [1] [nM]	SMILES
0.099	88	CN(Cc1nc2cc(Oc3ccc(-c4ccn[nH]4)cc3)ccc2[nH]1)[C@H]1CCOC1 [Example 77, Methyl-{5-[4-(2H-pyrazol-3-yl)-phenoxy]-1H-benzoimidazol-2-ylmethyl}-(S)-tetrahydro-furan-3-yl-amine]
0.089	95	CN(Cc1nc2cc(Oc3ccc(-c4ccn[nH]4)cc3)ccc2[nH]1)[C@@H]1CCOC1 [Example 78, Methyl-{5-[4-(2H-pyrazol-3-yl)-phenoxy]-1H-benzoimidazol-2-ylmethyl}-(R)-tetrahydro-furan-3-yl-amine]
0.3	98	c1cc(-c2ccc(Oc3ccc4c(cnn4CCCN4CCCC4)c3)cc2)[nH]n1 [Example 79, 5-[4-(2H-Pyrazol-3-yl)-phenoxy]-1-(3-pyrrolidin-1-yl-propyl)-1H-indazole]
0.09	98	CC[C@@H](C)N(C)Cc1nc2cc(Oc3ccc(-c4ccn[nH]4)cc3)ccc2[nH]1 [Example 80, ((R)-sec-Butyl)-methyl-{5-[4-(2H-pyrazol-3-yl)-phenoxy]-1H-benzoimidazol-2-ylmethyl}-amine]
0.27	100	CN(Cc1nc2cc(Oc3ccc(-c4ccn[nH]4)cc3)ccc2[nH]1)C[C@H]1CCCO1 [Example 81]
0.077	110	COC[C@H](C)N(C)Cc1nc2cc(Oc3ccc(-c4ccn[nH]4)cc3)ccc2[nH]1 [Example 82, ((S)-2-Methoxy-1-methyl-ethyl)-methyl-{5-[4-(2H-pyrazol-3-yl)-phenoxy]-1H-benzoimidazol-2-ylmethyl}-amine]
0.88	120	c1cc(-c2ccc(Oc3ccc4c(cnn4CCN4CCCC4)c3)nc2)[nH]n1 [Example 83, 5-[5-(2H-Pyrazol-3-yl)-pyridin-2-yloxy]-1-(2-pyrrolidin-1-yl-ethyl)-1H-indazole]
0.36	120	c1cc(-c2ccc(Oc3ccc4nn(CCCN5CCOCC5)cc4c3)cc2)[nH]n1 [Example 84, 2-(3-Morpholin-4-yl-propyl)-5-[4-(2H-pyrazol-3-yl)-phenoxy]-2H-indazole]
0.24	120	CN(Cc1nc2cc(Oc3ccc(-c4ccn[nH]4)cc3)ccc2[nH]1)CC1CCCO1 (stereo not shown) [Example 85, Methyl-{5-[4-(2H-pyrazol-3-yl)-phenoxy]-1H-benzoimidazol-2-ylmethyl}-(tetrahydro-furan-2-ylmethyl)-amine]
0.056	120	CCN(Cc1nc2cc(Oc3ccc(-c4ccn[nH]4)cc3)ccc2[nH]1)[C@@H](C)COC [Example 86, Ethyl-((S)-2-methoxy-1-methyl-ethyl)-{5-[4-(2H-pyrazol-3-yl)-phenoxy]-1H-benzoimidazol-2-ylmethyl}-amine]
0.36	120	CN(Cc1nc2cc(Oc3ccc(-c4ccn[nH]4)cc3)ccc2[nH]1)CC1COCCO1 (stereo not shown) [Example 87, [1,4]Dioxan-2-ylmethyl-methyl-{5-[4-(2H-pyrazol-3-yl)-phenoxy]-1H-benzoimidazol-2-ylmethyl}-amine]
0.086	130	CN1CCC[C@H]1Cc1nc2cc(Oc3ccc(-c4ccn[nH]4)cc3)ccc2[nH]1 [Example 89, 2-((S)-1-Methyl-pyrrolidin-2-ylmethyl)-5-[4-(2H-pyrazol-3-yl)-phenoxy]-1H-benzoimidazole]
0.45	130	CC(=O)N1CCN(CCn2ncc3cc(Oc4ccc(-c5ccn[nH]5)cc4)ccc32)CC1 [Example 90, 1-[4-(2-{5-[4-(2H-Pyrazol-3-yl)-phenoxy]-indazol-1-yl}-ethyl)-piperazin-1-yl]-ethanone]
0.21	140	COCCNCc1nc2cc(Oc3ccc(-c4ccn[nH]4)cc3)ccc2[nH]1 [Example 91, (2-Methoxy-ethyl)-{5-[4-(2H-pyrazol-3-yl)-phenoxy]-1H-benzoimidazol-2-ylmethyl}-amine]
0.11	140	CN(Cc1nc2cc(Oc3ccc(-c4ccn[nH]4)cc3)ccc2[nH]1)CC1CCCOC1 (stereo not shown) [Example 92, Methyl-{5-[4-(2H-pyrazol-3-yl)-phenoxy]-1H-benzoimidazol-2-ylmethyl}-(tetrahydro-pyran-3-ylmethyl)-amine]
0.58	150	CC(=O)N1CCN(CCn2cc3cc(Oc4ccc(-c5ccn[nH]5)cc4)ccc3n2)CC1 [Example 93, 1-[4-(2-{5-[4-(2H-Pyrazol-3-yl)-phenoxy]-indazol-2-yl}-ethyl)-piperazin-1-yl]-ethanone]
1.3	150	CC(=O)N1CCN(CCn2ncc3cc(Oc4ccc(-c5ccn[nH]5)cn4)ccc32)CC1 [Example 94, 1-[4-(2-{5-[5-(2H-Pyrazol-3-yl)-pyridin-2-yloxy]-indazol-1-yl}-ethyl)-piperazin-1-yl]-ethanone]
0.83	150	CC(=O)N1CCN(CCCn2cc3cc(Oc4ccc(-c5ccn[nH]5)cc4)ccc3n2)CC1 [Example 95, 1-[4-(3-{5-[4-(2H-Pyrazol-3-yl)-phenoxy]-indazol-2-yl}-propyl)-piperazin-1-yl]-ethanone]
0.79	160	N#CCC1CCN(Cc2ccc3cc(Oc4ccc(-c5ccn[nH]5)cn4)ccc3n2)CC1 [Example 96, (1-{6-[5-(2H-Pyrazol-3-yl)-pyridin-2-yloxy]-quinolin-2-ylmethyl}-piperidin-4-yl)-acetonitrile]
0.54	160	c1cc(-c2ccc(Oc3ccc4[nH]c(CNCC5CCCO5)nc4c3)cc2)[nH]n1 (stereo not shown) [Example 97, {5-[4-(2H-Pyrazol-3-yl)-phenoxy]-1H-benzoimidazol-2-ylmethyl}-(tetrahydro-furan-2-ylmethyl)-amine]
0.18	160	c1cc(-c2ccc(Oc3ccc4[nH]c(CN5CCSCC5)nc4c3)cc2)[nH]n1 [Example 98, 5-[4-(2H-Pyrazol-3-yl)-phenoxy]-2-thiomorpholin-4-ylmethyl-1H-benzoimidazole]
0.93	170	N#CC1CCN(Cc2ccc3cc(Oc4ccc(-c5ccn[nH]5)cn4)ccc3n2)CC1 [Example 99, 1-{6-[5-(2H-pyrazol-3-yl)-pyridin-2-yloxy]-quinolin-2-ylmethyl}-piperidine-4-carbonitrile]
0.42	170	c1cc(-c2ccc(Oc3ccc4[nH]c(CNC[C@@H]5CCCO5)nc4c3)cc2)[nH]n1 [Example 100, {5-[4-(2H-Pyrazol-3-yl)-phenoxy]-1H-benzoimidazol-2-ylmethyl}-[(S)-1-(tetrahydro-furan-2-yl)methyl]-amine]
0.55	190	c1cc(-c2ccc(Oc3ccc4[nH]c(CNC[C@H]5CCCO5)nc4c3)cc2)[nH]n1 [Example 101, {5-[4-(2H-Pyrazol-3-yl)-phenoxy]-1H-benzoimidazol-2-ylmethyl}-[(R)-1-(tetrahydro-furan-2-yl)methyl]-amine]
0.91	190	c1cc(-c2ccc(Oc3ccc4c(cnn4CCN4CCOCC4)c3)cc2)[nH]n1 [Example 102, 1-(2-Morpholin-4-yl-ethyl)-5-[4-(2H-pyrazol-3-yl)-phenoxy]-1H-indazole]
0.27	190	CC[C@H](C)N(Cc1nc2cc(Oc3ccc(-c4ccn[nH]4)cc3)ccc2[nH]1)C(C)=O [Example 103, N—((S)-sec-butyl)-N-{5-[4-(2H-pyrazol-3-yl)-phenoxy]-1H-benzoimidazol-2-ylmethyl}-acetamide]
